# Measured values reported in patent US12667538B2, “Vilazodone pharmaceutical composition, preparation method therefor and use thereof” (SHANGHAI YONSUN BIOTECHNOLOGY CO., LTD., priority 2020, dated 2026).
# Experiment: Particle size and distribution on a laser particle analyzer
# Assay type: physicochemical
# Settings: drug substance used for formulas 14-23
# Protocol: According to formula 1 shown in Table 1, the raw and auxiliary materials were weighed out and well mixed to obtain the suspension. The particle size was measured on a laser particle analyzer (parameter settings: dispersion medium: water; refractive index of dispersion medium: 1.333; absorbance of sample material: 0.05; refractive index of sample material: 1.711). The particle size morphology of the particles in the ground suspension was observed under a polarized light microscope. The particle size morphology of the solid particles of vilazodone in the suspension under the polarized light microscope is shown in FIG. 2.
# The particle size of formulas 3, 4 and 5 and the distribution thereof were measured on a laser particle analyzer using the following parameter settings: dispersion medium: water; refractive index of dispersion medium: 1.333; absorbance of sample material: 0.05; refractive index of sample material: 1.711. The particle size and the distribution of formula 6 were measured on a nano particle size analyzer (NICOMP Particle Sizing Systems) using the following parameter settings: dispersion medium: water; refractive index of dispersion medium: 1.333; viscosity: 0.933 cp; temperature: 23° C.; luminous intensity setting: 300 kHz.
# The particle size of formula 7 and the distribution thereof were measured on a laser particle analyzer using the following parameter settings: dispersion medium: water; refractive index of dispersion medium: 1.333; absorbance of sample material: 0.05; refractive index of sample material: 1.711. […]
# According to the formulas shown in Table 12, the drug substance of different particle sizes and auxiliary materials were weighed out and well mixed by stirring to form suspensions, and formulas 8-13 were obtained. The particle size and the distribution thereof were measured on a laser particle analyzer using the following parameter settings: dispersion medium: water; refractive index of dispersion medium: 1.333; absorbance of sample material: 0.05; refractive index of sample material: 1.711. […]
structure (smiles),measurement,value
"Cl.N#Cc1ccc2[nH]cc(CCCCN3CCN(c4ccc5oc(C(N)=O)cc5c4)CC3)c2c1 [Vilazodone hydrochloride, 2-benzofurancarboxamide, 5-[4-[4-(5-cyano-1H-indol-3-yl)butyl]-1-piperazinyl] hydrochloride (1:1)]",D10,8.4 μm
same,D50,20.6 μm
same,D90,43.9 μm
